{"source": "patent US8507214B2", "about": "“Elisa kit for detecting lincomycin” (Beijing Kwinbon Biotechnology Co., Ltd., priority 2008, dated 2013)", "key": {"[1]": {"tested_on": "monoclonal antibody prepared from hapten LIN-S2", "test": "Cross reaction (specificity) of the monoclonal antibody prepared from hapten LIN-S2", "format": "binding, mouse", "settings": "antibody from hapten scheme LIN-S2; lincomycin = 100%", "description": "(§1) When the mouse serum titer is determined as high, the spleen cells are collected and fused with SP2/0 myeloma cells at an amount ratio of 7:1. The cell supernatant is detected by indirect competitive ELISA for screening the positive wells. The cells in the positive wells are cloned via limiting dilution method until a hybridoma cell secreting monoclonal antibody is obtained. The 50% inhibitory concentration and specificity of the monoclonal antibodies prepared from the two hapten schemes above are detected."}, "[2]": {"tested_on": "lincomycin monoclonal antibody prepared from hapten LIN-S1", "test": "Cross reaction (specificity) of the monoclonal antibody prepared from hapten LIN-S1", "format": "binding, mouse", "settings": "antibody from hapten scheme LIN-S1; lincomycin = 100%", "description": "as §1"}}}
{"smiles": "CC[C@H]1OC(=O)[C@H](C)[C@@H](O[C@H]2C[C@@](C)(OC)[C@@H](O)[C@H](C)O2)[C@H](C)[C@@H](O[C@@H]2O[C@H](C)C[C@H](N(C)C)[C@H]2O)[C@](C)(O)C[C@@H](C)C(=O)[C@H](C)[C@@H](O)[C@]1(C)O", "note": "[Erythromycin]", "values": [{"measurement": "Cross reaction", "setting": "[1]", "value": "<1", "unit": "%"}, {"measurement": "Cross reaction", "setting": "[2]", "value": "<1", "unit": "%"}]}
{"smiles": "CCC[C@@H]1C[C@@H](C(=O)N[C@@H]([C@H]2O[C@H](SC)[C@H](O)[C@@H](O)[C@H]2O)[C@@H](C)O)N(C)C1", "note": "[Lincomycin]", "values": [{"measurement": "Cross reaction", "setting": "[1]", "value": 100, "unit": "%"}, {"measurement": "Cross reaction", "setting": "[2]", "value": 100, "unit": "%"}]}
{"smiles": "[H]/N=C(/N)N[C@H]1[C@H](O)[C@@H](O)[C@H](O[C@@H]2O[C@@H](C)[C@](O)(C=O)[C@H]2O[C@@H]2O[C@@H](CO)[C@H](O)[C@@H](O)[C@@H]2NC)[C@@H](N/C(N)=N\\[H])[C@@H]1O", "note": "[Streptomycin]", "values": [{"measurement": "Cross reaction", "setting": "[1]", "value": 9.2, "unit": "%"}, {"measurement": "Cross reaction", "setting": "[2]", "value": "<1", "unit": "%"}]}
{"smiles": "CC[C@H]1OC(=O)C[C@@H](O)[C@H](C)[C@@H](O[C@@H]2O[C@H](C)[C@@H](O[C@H]3C[C@@](C)(O)[C@@H](O)[C@H](C)O3)[C@H](N(C)C)[C@H]2O)[C@@H](CC=O)C[C@@H](C)C(=O)/C=C/C(C)=C/[C@@H]1CO[C@@H]1O[C@H](C)[C@@H](O)[C@@H](OC)[C@H]1OC", "note": "[Tylosin]", "values": [{"measurement": "Cross reaction", "setting": "[1]", "value": "<1", "unit": "%"}, {"measurement": "Cross reaction", "setting": "[2]", "value": "<1", "unit": "%"}]}
